# Earlier results as cited in patent US20250231185A1, “Coronavirus T Cell Epitopes, Megapools and Uses Thereof” (La Jolla Institute for Immunology, priority 2021, published 2025).
# Tested on: CD8+ T cells
# Details: CD8R (D) megapool epitopes; dominant = recognized by 3 or more donors/different studies; cited from earlier work
row,Substance,Dominant
1,1742 (TYACWHHSI) [compound 1742],Yes (more dominant epitopes are defined by being recognized by 3 or more donors/different studies)
2,1762 (PTDNYITTY) [compound 1762],Yes (more dominant epitopes are defined by being recognized by 3 or more donors/different studies)
3,1693 (VLQLPQGTTL) [compound 1693],Yes (more dominant epitopes are defined by being recognized by 3 or more donors/different studies)
4,1770 (YIFFASFYY) [compound 1770],Yes (more dominant epitopes are defined by being recognized by 3 or more donors/different studies)
5,1809 (YYQLYSTQL) [compound 1809],Yes (more dominant epitopes are defined by being recognized by 3 or more donors/different studies)
6,1696 (LLLDRLNQL) [compound 1696],Yes (more dominant epitopes are defined by being recognized by 3 or more donors/different studies)
7,1674 (RLFARTRSMW) [compound 1674],Yes (more dominant epitopes are defined by being recognized by 3 or more donors/different studies)
8,1795 (ALRANSAVK) [compound 1795],Yes (more dominant epitopes are defined by being recognized by 3 or more donors/different studies)
9,1751 (KVDGVDVEL) [compound 1751],Yes (more dominant epitopes are defined by being recognized by 3 or more donors/different studies)
10,1687 (KMKDLSPRW) [compound 1687],Yes (more dominant epitopes are defined by being recognized by 3 or more donors/different studies)
11,1760 (VTNNTFTLK) [compound 1760],Yes (more dominant epitopes are defined by being recognized by 3 or more donors/different studies)
12,1759 (KLVNKFLAL) [compound 1759],Yes (more dominant epitopes are defined by being recognized by 3 or more donors/different studies)
13,1703 (GMSRIGMEV) [compound 1703],Yes (more dominant epitopes are defined by being recognized by 3 or more donors/different studies)
14,1752 (LLLDDFVEII) [compound 1752],Yes (more dominant epitopes are defined by being recognized by 3 or more donors/different studies)
15,1706 (ILLNKHIDA) [compound 1706],Yes (more dominant epitopes are defined by being recognized by 3 or more donors/different studies)
16,1711 (VLSEARQHL) [compound 1711],Yes (more dominant epitopes are defined by being recognized by 3 or more donors/different studies)

# Same assay, conditions: CD8RE megapool peptides (non-spike SARS-CoV-2 antigens); dominant epitope Yes/No; cited from earlier work
row,Substance,Dominant
1,3014 (VRIQPGQTF) [compound 3014],Yes (more dominant epitopes are defined by being recognized by 3 or more donors/different studies)
2,2912 (AVILRGHLR) [compound 2912],Yes (more dominant epitopes are defined by being recognized by 3 or more donors/different studies)
3,2978 (AIMTRCLAV) [compound 2978],Yes (more dominant epitopes are defined by being recognized by 3 or more donors/different studies)
4,2963 (LYLQYIRKL) [compound 2963],Yes (more dominant epitopes are defined by being recognized by 3 or more donors/different studies)
5,3044 (YYQLYSTQL) [compound 3044],Yes (more dominant epitopes are defined by being recognized by 3 or more donors/different studies)
6,3034 (VTDTPKGPK) [compound 3034],Yes (more dominant epitopes are defined by being recognized by 3 or more donors/different studies)
7,2974 (IVDTVSALV) [compound 2974],Yes (more dominant epitopes are defined by being recognized by 3 or more donors/different studies)
8,2918 (KFPRGQGVPI) [compound 2918],Yes (more dominant epitopes are defined by being recognized by 3 or more donors/different studies)
9,2933 (KPRQKRTAT) [compound 2933],Yes (more dominant epitopes are defined by being recognized by 3 or more donors/different studies)
10,2952 (KLFDRYFKY) [compound 2952],Yes (more dominant epitopes are defined by being recognized by 3 or more donors/different studies)
11,2959 (DTDFVNEFY) [compound 2959],Yes (more dominant epitopes are defined by being recognized by 3 or more donors/different studies)
12,3016 (GTDLEGNFY) [compound 3016],Yes (more dominant epitopes are defined by being recognized by 3 or more donors/different studies)
13,2931 (LLLDRLNQL) [compound 2931],Yes (more dominant epitopes are defined by being recognized by 3 or more donors/different studies)
14,2947 (TVLSFCAFAV) [compound 2947],Yes (more dominant epitopes are defined by being recognized by 3 or more donors/different studies)
15,2925 (GTGPEAGLPY) [compound 2925],Yes (more dominant epitopes are defined by being recognized by 3 or more donors/different studies)
16,3000 (YLATALLTL) [compound 3000],Yes (more dominant epitopes are defined by being recognized by 3 or more donors/different studies)
17,3003 (ASMPTTIAK) [compound 3003],Yes (more dominant epitopes are defined by being recognized by 3 or more donors/different studies)

# Same assay, conditions: HLA-A*01:01 epitopes overlapping TTDPSFLGRY; Saini et al.; cited from earlier work
row,Substance,dominance as reported
1,HTTDPSFLGRY [nsp3 818-828],particularly dominant

# Same assay, conditions: SARS-CoV-2-derived CD8 epitopes; dominant = recognized by 3 or more donors/different studies; cited from earlier work
row,Substance,Dominant
1,629 (TDNYITTY) [compound 629],Yes (more dominant epitopes are defined by being recognized by 3 or more donors/different studies)
2,528 (QELIRQGTDYKHW) [compound 528],Yes (more dominant epitopes are defined by being recognized by 3 or more donors/different studies)
3,683 (ITDVFYKENSY) [compound 683],Yes (more dominant epitopes are defined by being recognized by 3 or more donors/different studies)
4,518 (LALLLLDRL) [compound 518],Yes (more dominant epitopes are defined by being recognized by 3 or more donors/different studies)
5,549 (AYKTFPPTEPK) [compound 549],Yes (more dominant epitopes are defined by being recognized by 3 or more donors/different studies)
6,584 (FGDDTVIEV) [compound 584],Yes (more dominant epitopes are defined by being recognized by 3 or more donors/different studies)

# Same assay, conditions: SARS-CoV-2 Ag S; T cell type recognizing the epitope; cited from earlier work
row,Substance,Restriction
1,1334 (YQDVNCTEV) [compound 1334],CD8
2,1374 (VFAQVKQIY) [compound 1374],CD8
3,1320 (QPYRVVVLSF) [compound 1320],CD8
4,1406 (RLDKVEAEVQI) [compound 1406],CD8
5,1424 (FPQSAPHGV) [compound 1424],CD8
6,1443 (HWFVTQRNF) [compound 1443],CD8
7,1323 (ELLHAPATV) [compound 1323],CD8
8,1395 (FAMQMAYRF) [compound 1395],CD8
9,1310 (FERDISTEIY) [compound 1310],CD8
10,1418 (RASANLAATK) [compound 1418],CD8
11,1436 (FPREGVFV) [compound 1436],CD8

# Same assay, conditions: T cell subset (CD4 or CD8) recognizing the SARS-CoV-2-derived epitope; cited from earlier work
row,Substance,Restriction
1,620 (EVKPFITESK) [compound 620],CD8
2,571 (ILSPLYAFA) [compound 571],CD8
3,637 (AIVSTIQRK) [compound 637],CD8
4,629 (TDNYITTY) [compound 629],CD8
5,624 (APYIVGDVV) [compound 624],CD8
6,645 (YYTSNPTTFHL) [compound 645],CD8
7,655 (MSMTYGQQF) [compound 655],CD8
8,528 (QELIRQGTDYKHW) [compound 528],CD8
9,622 (FLTENLLLYI) [compound 622],CD8
10,683 (ITDVFYKENSY) [compound 683],CD8
11,508 (IIWVATEGA) [compound 508],CD8
12,518 (LALLLLDRL) [compound 518],CD8
13,559 (HLKDGTCGL) [compound 559],CD8
14,653 (HTQVVDMSMTY) [compound 653],CD8
15,567 (GFMGRIRSV) [compound 567],CD8
16,658 (FEYYHTTDPSF) [compound 658],CD8
17,690 (NYYKKDNSY) [compound 690],CD8
18,549 (AYKTFPPTEPK) [compound 549],CD8
19,535 (FAPSASAFF) [compound 535],CD8
20,584 (FGDDTVIEV) [compound 584],CD8

# Same assay, conditions: T cell type (CD4 or CD8) recognizing the SARS-CoV-2 epitope; cited from earlier work
row,Substance,Restriction
1,926 (KVAGFAKFLK) [compound 926],CD8
2,921 (YLASGGQPI) [compound 921],CD8
3,1078 (KPRSQMEIDF) [compound 1078],CD8
4,1081 (LLLDDFVEI) [compound 1081],CD8
5,1034 (YQKVGMQKY) [compound 1034],CD8
6,985 (LRIMASLVL) [compound 985],CD8
7,946 (STVFPPTSF) [compound 946],CD8
8,1028 (YRGTTTYKL) [compound 1028],CD8
9,907 (SEISMDNSPNL) [compound 907],CD8
10,1071 (SLENVAFNV) [compound 1071],CD8
11,1005 (YLPYPDPSRI) [compound 1005],CD8
12,1079 (FIERYKLEGY) [compound 1079],CD8
13,902 (TFTYASALW) [compound 902],CD8
14,916 (YLYFIKGLNNL) [compound 916],CD8
15,1050 (MYKGLPWNV) [compound 1050],CD8
16,1018 (TPHTVLQAV) [compound 1018],CD8
17,1021 (QLYLGGMSYY) [compound 1021],CD8
18,1002 (KQGDDYVYL) [compound 1002],CD8
19,957 (FAVSKGFFK) [compound 957],CD8
20,918 (VPANSTVL) [compound 918],CD8
